Columns and labels:
Type in all cases: cell-based
[1] = system: IL-13 induced STAT6 phosphorylation in BEAS-2B human lung epithelial cells; assay: Inhibition of IL-13 stimulated pSTAT6 in BEAS-2B cells; details: AlphaScreen, read-out: pIC50, inhibition of IL-13 stimulated pSTAT6 (converted)
Description: The AlphaScreen JAKI cellular potency assay was carried out by measuring interleukin-13 (IL-13, R&D Systems) induced STAT6 phosphorylation in BEAS-2B human lung epithelial cells (ATCC). The anti-STAT6 antibody (Cell Signaling Technologies) was conjugated to AlphaScreen acceptor beads (Perkin Elmer), while the anti-pSTAT6 (pTyr641) antibody (Cell Signaling Technologies) was biotinylated using EZ-Link Sulfo-NHS-Biotin (Thermo Scientific).
BEAS-2B cells were grown at 37° C. in a 5% CO2 humidified incubator in 50% DMEM/50% F-12 medium (Life Technologies) supplemented with 10% FBS (Hyclone), 100 U/mL penicillin, 100 μg/mL streptomycin (Life Technologies), and 2 mM GlutaMAX (Life Technologies). On day 1 of the assay, cells were seeded at a 7,500 cells/well density in white poly-D-lysine-coated 384-well plates (Corning) with 25 μL medium, and were allowed to adhere overnight in the incubator. […] After a minimum of 2 h incubation, the assay plates were read on the EnVision plate reader. AlphaScreen luminescence signals were recorded and utilized to calculate the percent inhibition values based on DMSO and background controls.
For dose-response analysis, percent inhibition data were plotted vs. compound concentrations, and IC50 values were determined from a 4-parameter robust fit model with the Prism software. Results may also be expressed as the negative logarithm of the IC50 value, pIC50.

[2] = system: IL-2/anti-CD3 stimulated IFNγ in human PBMCs; assay: Inhibition of IL-2/anti-CD3 stimulated IFNγ in human PBMCs; details: PBMC, 24 h stimulation, ELISA, read-out: pIC50, inhibition of IL-2/anti-CD3 stimulated IFNγ (converted)
Description: The potency of the test compound for inhibition of interleukin-2 (IL-2)/anti-CD3 stimulated interferon gamma (IFNγ) was measured in human peripheral blood mononuclear cells (PBMCs) isolated from human whole blood (Stanford Blood Center). Because IL-2 signals through JAK, this assay provides a measure of JAK cellular potency.
(1) Human peripheral blood mononuclear cells (PBMC) were isolated from human whole blood of healthy donors using a ficoll gradient. Cells were cultured in a 37° C., 5% CO2 humidified incubator in RPMI (Life Technologies) supplemented with 10% Heat Inactivated Fetal Bovine Serum (FBS, Life Technologies), 2 mM Glutamax (Life Technologies), 25 mM HEPES (Life Technologies) and 1× Pen/Strep (Life Technologies). Cells were seeded at 200,000 cells/well in media (50 μL) and cultured for 1 h. The compound was serially diluted in DMSO and then diluted another 500-fold (to a 2× final assay concentration) in media. […]
(2) After cytokine stimulation, cells were centrifuged at 500 g for 5 min and supernatants removed and frozen at −80° C. To determine the inhibitory potency of test compounds in response to IL-2/anti-CD3, supernatant IFNγ concentrations were measured via ELISA (R&D Systems). IC50 values were determined from analysis of the inhibition curves of concentration of IFNγ vs compound concentration. Data are expressed as pIC50 (negative decadic logarithm IC50) values.

[3] = system: BEAS-2B human lung epithelial cells; assay: CellTiter-Glo cell viability/cytotoxicity assay; details: BEAS-2B cells; 48 h; 15% inhibition threshold
Description: A CellTiter-Glo luminescent cell viability/cytotoxicity assay was carried out in BEAS-2B human lung epithelial cells (ATCC) under the normal growth condition.
Cells were grown at 37° C. in a 5% CO2 humidified incubator in 50% DMEM/50% F-12 medium (Life Technologies) supplemented with 10% FBS (Hyclone), 100 U/mL penicillin, 100 μg/mL streptomycin (Life Technologies), and 2 mM GlutaMAX (Life Technologies). On day 1 of the assay, cells were seeded at a 500 cells/well density in white 384-well tissue culture plates (Corning) with 25 μL medium, and were allowed to adhere overnight in the incubator. On day 2 of the assay, 5 μL of medium containing dose-responses of test compounds was added, and incubated at 37° C. for 48 h. 30 μL of CellTiter-Glo detection solution (Promega) was subsequently added, mixed on an orbital shaker for 5 min, and incubated for additional 10 min before being read on the EnVision reader. Luminescence signals were recorded and percent DMSO control values were calculated.
For dose-response analysis, percent DMSO control data were plotted vs. compound concentrations to derive dose-response curves by line connecting each data point. The concentration at which each curve crosses the 15% inhibition threshold is defined as CC15.

Q: For `CCc1cc(O)c(F)cc1-c1cc(F)c2c(-c3nc4c([nH]3)CCN(C(=O)[C@]35C[C@H]3CCN5)C4)n[nH]c2c1` [Compound 1, (1S,5R)-2-azabicyclo[3.1.0]hexan-1-yl(2-(6-(2-ethyl-5-fluoro-4-hydroxyphenyl)-4-fluoro-1H-indazol-3-yl)-6,7-dihydro-3H-imidazo[4,5-c]pyridin-5(4H)-yl)methanone], which IC50 [1] is on record?
A: Its IC50 is 10 nM.

Q: And the IC50 [2]?
A: Its IC50 is 200 nM.

Q: And the CC15 [3]?
A: Its CC15 is greater than 10000 nM.

Q: And the pCC15 [3]?
A: The pCC15 was less than 5.
